Laboratory results from patent US20170360795A1, “TREATMENT OF CANCERS USING PI3 KINASE ISOFORM MODULATORS” (INFINITY PHARMACEUTICALS, INC., priority 2013, published 2017).
“Also recorded” adds a separate entry of the source.

Tests used:
central nervous system = test: Neurofunctional study (FOB, motor activity); format: in vivo, Sprague-Dawley rat
human P-glycoprotein = biological target: T1, human P-glycoprotein (Homo sapiens, UniProt P08183); test: Caco-2 cell monolayers: membrane permeability and P-glycoprotein interaction; format: in vitro ADME
T1 construct: assessed in vitro using Caco-2 cell monolayers; endogenous in cells; host or cells: Caco-2

[1] = system: diluted whole blood stimulated with LPS; test: Cytokine production from diluted whole blood stimulated with LPS; format: cell-based
pPRAS40 = pPRAS40 level in HH, MJ, HuT78 cells; format: cell-based; settings: FIG. 33, as compared to GS-1101
circulating CLL cells = test: Circulating CLL cells in treated CLL patients; format: in vivo, human; settings: 25 mg BID
CLL/SLL = test: Clinical activity in CLL/SLL patients; format: in vivo, human
[2] = Phase 1 dose-escalation study in hematologic malignancies: pharmacokinetics; format: in vivo, human; settings: patients, over the dose range studied
Protocol: PK and PD markers were evaluated after the first dose (e.g., 8 mg BID) and at steady state. PD activity (PI3K inhibition) in whole blood was evaluated using a basophil activation assay which measured reduction in CD63 expression on the surface of basophils following ex vivo stimulation.

[3] = system: TNF-α and IL-10 production; test: LPS-stimulated cytokine production in diluted whole blood; format: cell-based; settings: diluted whole blood (1:1), 24 hours pre-treatment, 100 μg/mL LPS
PI3K δ = PI3K δ (Homo sapiens, UniProt O00329); test: PK/PD: plasma concentration versus PI3K-δ inhibition; format: in vivo; settings: PK/PD in patients
SU-DHL-4 = test: cellular growth inhibition assay (72 hour CTG), DLBCL; format: cell-based; settings: SU-DHL-4 (GCB)
SU-DHL-6 = test: as above; format: cell-based; settings: SU-DHL-6 (GCB)
WSU-DLCL-2 = test: cellular growth inhibition assay, DLBCL; format: cell-based; settings: WSU-DLCL-2 (GCB)
phospho-BTK in SU-DHL-4 = test: phospho-BTK in DLBCL cells; format: cell-based; settings: SU-DHL-4 cells
PTEN deletion cell lines = test: sensitivity of PTEN deletion cell lines; format: cell-based
[4] = system: PTEN wildtype cell lines (Molt-13 and Molt-16); test: growth inhibition of T-ALL cells; format: cell-based
HH cells = test: CTCL cytotoxicity, 72 hours; format: cell-based
Protocol: MJ and HuT78 cells were grown in IMDM 20% FBS, and HH cells were grown in RPMI 10% FBS.

[5] = system: CD38/CD69 positive CLL cells; test: phosphospecific flow cytometry of circulating CLL cells in patients; format: in vivo, human; settings: 25 mg BID
Text: In order to characterize the surface phenotype of the cells present in CLL patients, antibodies against, among others, CD38 and CD69 were included in the panel, and the samples were subjected to phosphor-specific flow cytometry.

T1 sequence (P08183 whole entry): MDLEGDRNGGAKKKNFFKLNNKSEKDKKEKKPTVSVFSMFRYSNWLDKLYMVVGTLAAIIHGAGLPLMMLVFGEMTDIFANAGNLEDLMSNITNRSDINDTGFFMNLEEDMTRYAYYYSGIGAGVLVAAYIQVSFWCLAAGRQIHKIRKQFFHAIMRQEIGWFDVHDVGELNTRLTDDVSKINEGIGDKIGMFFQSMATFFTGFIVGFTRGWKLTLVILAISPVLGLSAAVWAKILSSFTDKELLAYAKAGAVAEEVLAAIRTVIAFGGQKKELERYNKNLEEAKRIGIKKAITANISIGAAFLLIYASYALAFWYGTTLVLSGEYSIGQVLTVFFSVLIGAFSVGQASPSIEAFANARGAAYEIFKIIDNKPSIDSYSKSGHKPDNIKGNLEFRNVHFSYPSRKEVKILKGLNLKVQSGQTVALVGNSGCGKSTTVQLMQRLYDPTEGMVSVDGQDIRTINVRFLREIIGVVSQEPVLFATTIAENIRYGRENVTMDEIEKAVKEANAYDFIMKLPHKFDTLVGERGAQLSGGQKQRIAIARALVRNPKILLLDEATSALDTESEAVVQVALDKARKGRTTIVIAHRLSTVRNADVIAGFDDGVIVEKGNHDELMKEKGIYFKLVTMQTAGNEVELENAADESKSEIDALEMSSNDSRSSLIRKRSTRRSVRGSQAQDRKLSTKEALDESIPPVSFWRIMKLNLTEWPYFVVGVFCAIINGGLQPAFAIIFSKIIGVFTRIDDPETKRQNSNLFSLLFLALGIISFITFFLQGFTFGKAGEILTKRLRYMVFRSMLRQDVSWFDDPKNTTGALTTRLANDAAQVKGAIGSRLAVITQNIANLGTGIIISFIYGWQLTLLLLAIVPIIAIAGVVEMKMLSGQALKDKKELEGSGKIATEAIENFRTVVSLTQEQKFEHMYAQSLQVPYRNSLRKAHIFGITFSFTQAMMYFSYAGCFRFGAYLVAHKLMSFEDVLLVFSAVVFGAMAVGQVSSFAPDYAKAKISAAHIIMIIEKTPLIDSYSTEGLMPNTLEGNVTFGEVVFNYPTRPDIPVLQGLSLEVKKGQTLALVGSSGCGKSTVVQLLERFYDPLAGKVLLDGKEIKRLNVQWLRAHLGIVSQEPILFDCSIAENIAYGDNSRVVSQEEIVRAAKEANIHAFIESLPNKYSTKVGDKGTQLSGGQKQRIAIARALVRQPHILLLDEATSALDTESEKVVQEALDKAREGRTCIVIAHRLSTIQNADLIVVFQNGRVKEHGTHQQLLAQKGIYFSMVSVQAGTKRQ
Sequence of PI3K δ (O00329 whole entry): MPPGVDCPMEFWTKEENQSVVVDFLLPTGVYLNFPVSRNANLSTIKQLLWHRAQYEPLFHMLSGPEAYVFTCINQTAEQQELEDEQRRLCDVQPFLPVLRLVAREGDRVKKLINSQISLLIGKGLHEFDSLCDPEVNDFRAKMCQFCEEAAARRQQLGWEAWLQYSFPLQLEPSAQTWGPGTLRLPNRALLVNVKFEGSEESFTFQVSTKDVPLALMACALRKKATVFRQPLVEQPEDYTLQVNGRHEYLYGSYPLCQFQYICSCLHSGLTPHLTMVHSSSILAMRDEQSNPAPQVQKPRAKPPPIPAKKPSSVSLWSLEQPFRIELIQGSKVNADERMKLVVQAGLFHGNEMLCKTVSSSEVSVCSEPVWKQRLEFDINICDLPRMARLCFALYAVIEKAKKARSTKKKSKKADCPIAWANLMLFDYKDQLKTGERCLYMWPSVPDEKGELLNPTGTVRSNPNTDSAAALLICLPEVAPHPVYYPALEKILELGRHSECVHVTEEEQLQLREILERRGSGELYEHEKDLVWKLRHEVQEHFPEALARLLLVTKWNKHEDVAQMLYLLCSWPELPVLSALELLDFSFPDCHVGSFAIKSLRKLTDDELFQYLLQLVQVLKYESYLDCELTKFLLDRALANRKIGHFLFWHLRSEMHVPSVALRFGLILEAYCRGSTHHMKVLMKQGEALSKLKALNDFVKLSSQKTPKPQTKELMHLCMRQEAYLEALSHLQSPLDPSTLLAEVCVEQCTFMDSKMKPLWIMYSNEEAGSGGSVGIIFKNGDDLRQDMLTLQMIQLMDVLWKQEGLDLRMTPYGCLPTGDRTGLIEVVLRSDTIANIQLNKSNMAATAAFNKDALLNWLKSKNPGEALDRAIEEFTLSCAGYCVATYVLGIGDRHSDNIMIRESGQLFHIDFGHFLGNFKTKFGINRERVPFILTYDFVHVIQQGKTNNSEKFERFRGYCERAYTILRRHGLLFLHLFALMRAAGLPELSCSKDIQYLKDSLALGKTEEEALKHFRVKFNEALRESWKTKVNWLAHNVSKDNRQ
Sequence of PI3K δ (P27986 whole entry partner): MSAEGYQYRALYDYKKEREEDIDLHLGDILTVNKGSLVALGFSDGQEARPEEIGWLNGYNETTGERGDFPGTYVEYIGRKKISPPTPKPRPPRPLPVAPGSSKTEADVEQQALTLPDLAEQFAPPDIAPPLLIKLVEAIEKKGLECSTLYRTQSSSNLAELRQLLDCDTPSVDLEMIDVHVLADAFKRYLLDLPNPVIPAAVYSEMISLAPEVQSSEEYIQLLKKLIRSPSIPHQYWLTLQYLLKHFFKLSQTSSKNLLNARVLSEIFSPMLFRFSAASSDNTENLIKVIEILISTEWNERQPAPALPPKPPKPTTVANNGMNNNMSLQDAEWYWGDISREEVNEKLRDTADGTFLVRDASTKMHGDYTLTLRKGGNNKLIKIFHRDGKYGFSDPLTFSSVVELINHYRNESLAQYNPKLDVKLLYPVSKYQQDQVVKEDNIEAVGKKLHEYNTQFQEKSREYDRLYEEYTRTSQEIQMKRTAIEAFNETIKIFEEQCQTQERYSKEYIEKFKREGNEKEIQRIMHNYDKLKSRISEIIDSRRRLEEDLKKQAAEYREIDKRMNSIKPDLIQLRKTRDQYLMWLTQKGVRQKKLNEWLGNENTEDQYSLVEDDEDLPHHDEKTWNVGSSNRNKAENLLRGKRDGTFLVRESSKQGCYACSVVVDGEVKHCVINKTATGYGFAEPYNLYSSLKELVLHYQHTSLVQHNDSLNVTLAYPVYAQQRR

In the case of `C[C@H](Nc1ncnc2[nH]cnc12)c1cc2cccc(Cl)c2c(=O)n1-c1ccccc1` [Compound 292], the locomotor activity (central nervous system; 2 h after a 350 mg/kg dose) is reported as “Significant decreases”, the “effects on the central nervous system” value (central nervous system; dose levels ≦50 mg/kg) is reported as “No effects” and the cell membrane permeability (human P-glycoprotein) is reported as “moderate”. For the same molecule, the “inhibition of active transport of other P-gp substrates” value (human P-glycoprotein) was “has the potential to inhibit the active transport of other P-gp substrates”, the TNF-α production ([1]; FIG. 14A) was “inhibits” and the IL-10 production ([1]; FIG. 14B) was “inhibits”. For the same molecule, the “level of pPRAS40” value (pPRAS40) was “decrease”, the “CD38/CD69 double positive circulating CLL cells” value (circulating CLL cells) was “reduction” and the “CD38 positive circulating CLL cells” value (circulating CLL cells) was “reduction”. The “CD69 positive circulating CLL cells” value (circulating CLL cells) was “reduction”, the clinical activity (CLL/SLL) was “rapid onset of clinical activity” and the “plasma Cmax and AUC versus dose” value [2] was “dose-proportional increases”. The “cytokine (TNF-α and IL-10) production” value [3] was “inhibition”, the “dose at which complete inhibition of PI3K-δ can be achieved” value (PI3K δ) was at least 15 mg BID and the “sensitivity in cellular growth inhibition assay” value (SU-DHL-4) was “more sensitive; also recorded: nanomolar (nM) range”. For the same molecule, the “sensitivity in cellular growth inhibition assay” value (SU-DHL-6) was “more sensitive; also recorded: nanomolar (nM) range”, the “IC50, cellular growth inhibition” value (WSU-DLCL-2) was “low micromolar (μM) range” and the “level of pBTK (phospho-BTK)” value (phospho-BTK in SU-DHL-4) was “not modulated”. The sensitivity (PTEN deletion cell lines; 145 subsets of PTEN deletion cell lines) was “differentially susceptible”, the sensitivity (PTEN deletion cell lines; PTEN wild type cells) was “not sensitive” and the growth inhibition [4] was “resistant”. For the same molecule, the “cytotoxicity, sensitivity” value (HH cells) was “more sensitive”, the “CD38 positive, CD69 positive and CD38/CD69 double positive circulating CLL cells” value [5] was “significant reductions” and the dose limiting toxicity (15 mg BID cohort) was “Grade 4 neutropenia”. For the same molecule, the “new Grade >3 neutropenia” value (20 patients, 8-50 mg BID) was 6 (30%) n (%), the “new Grade >3 thrombocytopenia” value (20 patients, 8-50 mg BID) was 1 (5%) n (%) and the “patients with AEs Grade >3” value (20 patients, 8-50 mg BID) was 7 (35%) n (%). The “patients with adverse events (AEs)” value (20 patients, 8-50 mg BID) was 13 (65%) n (%) and the “Grade 3 ALT/AST elevations” value (20 patients, MM patient, onset 6 weeks after initiation of dosing) was 1 (5%) n (%).
